From PubChem BioAssay AID1996
≈ marks a conversion by molar mass, not a printed value.

Conditions: buffer; pH 7.4; 200.0 µM

Row | Compound | solubility kinetic
1 | O=C1CNC(=S)N1CCc1ccc(O)c(O)c1 | 32.3 µg/mL (≈ 128 µM)
2 | Cc1[nH]c(=O)[nH]c(=O)c1NC(=O)c1ccc(OC(C)C)cc1 | > 45.5 µg/mL
3 | N#C/C(=C/c1ccco1)C(N)=S | > 26.7 µg/mL
4 | CC(C)n1c(NCc2ccccc2O)nc2ccccc21 | 15.8 µg/mL (≈ 56.2 µM)
5 | COc1ccccc1NCCC(=O)OCC(=O)Nc1ccccc1F | > 52 µg/mL
6 | CC(=O)N(C1=NCCCS1)c1ccc(Cl)cc1 | 32.8 µg/mL (≈ 122 µM)
7 | O=C(Nc1ccc(F)cc1)c1csc(Cc2ccccc2)n1 | 1.3 µg/mL (≈ 4.16 µM)
8 | O=C1OCCN/C1=C\C(=O)c1ccc(Cl)cc1 | > 37.8 µg/mL
9 | Cc1ccc2nsnc2c1NC(=O)Cc1ccc(Cl)cc1 | 0.7 µg/mL (≈ 2.2 µM)
10 | CCOc1nc(NCCO)nc(Nc2ccccc2F)n1 | > 44 µg/mL
11 | CC(C)Oc1ccc(C2NC(=O)c3ccccc3O2)cc1 (stereo unspecified) | 2.6 µg/mL (≈ 9.18 µM)
12 | Clc1nc(-c2ccccc2)ncc1Oc1ccccc1 | < 0.3 µg/mL
13 | O=C(COC(=O)[C@@H]1CC(O)CN1S(=O)(=O)c1ccc2c(c1)OCCO2)Nc1cc(F)ccc1F (stereo partly specified) | > 74.8 µg/mL
14 | CC1CCCN(CC(O)COCc2ccc3c(c2)OCO3)C1.Cl (stereo unspecified) | 39 µg/mL
15 | Cc1ccc(NC(=O)CN2CCN(C(=O)c3ccco3)CC2)cc1 | 47.8 µg/mL (≈ 146 µM)
16 | O=C(CSc1ccccn1)Nc1ccc2c(c1)OCCO2 | > 45.4 µg/mL
17 | CC(C)(CO)NC(=O)C12CC3CC(CC(Br)(C3)C1)C2 | > 49.5 µg/mL
18 | CN(C)/C=N/c1c(C#N)cnn1C | > 26.6 µg/mL
19 | Clc1nc(N2CCOCC2)ncc1Br | > 41.8 µg/mL
20 | Cc1cc(=S)nc(-c2ccccn2)[nH]1 | 28.6 µg/mL (≈ 141 µM)
21 | COc1ccc(C=O)cc1Oc1nc(Cl)ncc1F | 32 µg/mL (≈ 113 µM)

Row | Compound | solubility kinetic
22 | COc1cccc(C(=O)c2cc3cc(Cl)ccc3[nH]2)c1 | < 0.6 µg/mL
23 | O=C(Nc1cccc(-c2cnc3ccccc3n2)c1)c1ccncc1 | 0.6 µg/mL (≈ 1.84 µM)
24 | O=C(COC(=O)c1cccc([N+](=O)[O-])c1)NCc1cccs1 | 36 µg/mL (≈ 112 µM)
25 | N#Cc1ccc(CSc2ccccn2)c(Cl)c1 | 3.4 µg/mL (≈ 13 µM)
26 | COc1ccc(-c2cc(C(=O)NC3CCCC3)no2)cc1 | 0.4 µg/mL (≈ 1.4 µM)
27 | CC(=Nc1ccccc1C(F)(F)F)c1ccncc1 | < 0.3 µg/mL
28 | COCCN1Cc2cccc(C(=O)NCCc3ccccc3)c2C1=O | 41.5 µg/mL (≈ 123 µM)
29 | CCC1(C)Cc2c(sc3nc(SC)[nH]c(=S)c23)CO1 (stereo unspecified) | 8.9 µg/mL (≈ 28.5 µM)
30 | O=C(NCc1ccccc1)C1CCN(C(=O)Cc2ccccc2)CC1 | > 50.5 µg/mL
31 | O=[N+]([O-])c1ccc(-c2cn(-c3ccccc3F)c(=S)[nH]2)cc1 | 0.6 µg/mL (≈ 1.9 µM)
32 | Cc1noc(C)c1C(=O)OCC(=O)N1CCc2ccccc21 | 4.8 µg/mL (≈ 16 µM)
33 | COc1ccc(NC(=O)COC(=O)C2CCN(S(=O)(=O)c3cccs3)CC2)cc1OC | 47.1 µg/mL (≈ 101 µM)
34 | Cc1cc(Cl)c(OCCOCCN2CCNCC2)c(Cl)c1.O=C(O)C(=O)O | 62.5 µg/mL
35 | Cn1cccc1C(=O)NCC(c1ccco1)N1CCCCC1 (stereo unspecified) | > 45.2 µg/mL
36 | Cc1cccc(NC(=O)Nc2c(C)[nH]c(=O)[nH]c2=O)c1C | 5.2 µg/mL (≈ 18 µM)
37 | CCc1ccc(NC(=O)c2cnc(SC)nc2C)cc1 | 17.4 µg/mL (≈ 60.5 µM)
38 | CCOC(=O)C(=O)N(CC)C1CCS(=O)(=O)C1 (stereo unspecified) | > 39.5 µg/mL
39 | O=C(CCCc1ccccc1)NCc1ccccc1Cl | 32.9 µg/mL (≈ 114 µM)
40 | COc1ccc(-c2cc(C(=O)OCC(=O)NC3CC3)c3ccccc3n2)cc1OC | 10 µg/mL (≈ 24.6 µM)
41 | OCC1OC(n2cnc3c(NC4CCCC4)ncnc32)C(O)C1O (stereo unspecified) | > 50.3 µg/mL
42 | CCc1ccc(NC(=O)COC(=O)CCC2CCCC2)cc1 | 7.9 µg/mL (≈ 26 µM)

Row | Compound | solubility kinetic
43 | O=C(C[n+]1ccc(C(=O)c2ccccc2)cc1)Nc1ccccc1OC(F)F.[Cl-] | 59.4 µg/mL
44 | Cc1cccc(NC(=O)NC2CC3CCC(C2)N3Cc2ccco2)c1 (stereo unspecified) | 11.1 µg/mL (≈ 32.7 µM)
45 | CC(Oc1ccc(-c2nnco2)cc1)C(=O)N1CCOCC1 (stereo unspecified) | > 45.5 µg/mL
46 | COC(=O)c1ccc2c(=O)[nH]c(COC(=O)c3[nH]c(C)c(C(C)=O)c3C)nc2c1 | 18.1 µg/mL (≈ 45.5 µM)
47 | CCn1cc(C(=O)NCCC(=O)NCCO)c(=O)c2cc3c(cc21)OCO3 | > 56.3 µg/mL
48 | O=C1C2C3C=CC(C3)C2C(=O)N1Nc1ccccc1 (stereo unspecified) | > 38.1 µg/mL
49 | CN1CCN(C(=O)c2ccc(-c3ccccc3)cc2)CC1 | > 42.1 µg/mL
50 | N#Cc1ccsc1NC(=O)CN1CCOCC1 | 28.6 µg/mL (≈ 114 µM)
51 | COc1cc(OC)c2c(c1)S(=O)(=O)C(c1ccccc1)=C2N | 5.1 µg/mL (≈ 16.1 µM)
52 | N#CCCN(Cc1ccccc1)C(=O)c1cccs1 | > 40.6 µg/mL
53 | Cc1c(C(=O)O)sc2nc3n(c(=O)c12)CCC3 | > 37.5 µg/mL
54 | O=C1COc2ccc(C(=O)COC(=O)c3ccccn3)cc2N1 | 16.9 µg/mL (≈ 54.1 µM)
55 | Cc1nc(S/C(C(=O)O)=C2/C(=O)Nc3ccccc32)n[nH]1 | > 45.3 µg/mL
56 | O=C(CN1C(=O)NC2(CCOc3ccccc32)C1=O)NCc1ccccc1 (stereo unspecified) | > 54.8 µg/mL
57 | O=C(COc1cccnc1[N+](=O)[O-])NCc1cccs1 | > 44 µg/mL
58 | Cc1ccc(N2C(=O)Cc3ccccc3C2=O)cc1 | > 37.7 µg/mL
59 | N#C/C(=C\c1ccccc1C(=O)O)c1nc2ccccc2[nH]1 | > 43.4 µg/mL
60 | O=C1Nc2ccccc2N2CCCC12 (stereo unspecified) | 27.5 µg/mL (≈ 146 µM)
61 | CCCCC1=NN(C(=O)c2ccncc2)C(O)(C(F)(F)F)C1 (stereo unspecified) | > 47.3 µg/mL
